Experimental data taken from paper PMC5691054, “An unexpected protein interaction promotes drug resistance in leukemia” (Nature Communications, 2017).
Entries after “also recorded” stand apart in the source; their conditions may differ. Where no end group is shown, it is not given here. The star is where a group is joined. Biotin = O=C1N[C@H]2[C@H](CS[C@H]2CCCCC(=O)*)N1; FAM = fluorescein

What was measured:
[1] = target: T1, MPP1 and ABCC4 protein interaction (Homo sapiens, UniProt Q00013); assay: Competition of ABCC4 C-terminal peptides with MPP1–ABCC4 complex (GST-ABCC4-C100 pull-down, immunoblot); format: biochemical
T1 construct: For full-length expression of MPP1, the pTriX vector containing an N-terminal His tag was used to create the His-S-MPP1 fusion protein; made in house; host or cells: E. coli
T1 sequence (Q00013 1-466): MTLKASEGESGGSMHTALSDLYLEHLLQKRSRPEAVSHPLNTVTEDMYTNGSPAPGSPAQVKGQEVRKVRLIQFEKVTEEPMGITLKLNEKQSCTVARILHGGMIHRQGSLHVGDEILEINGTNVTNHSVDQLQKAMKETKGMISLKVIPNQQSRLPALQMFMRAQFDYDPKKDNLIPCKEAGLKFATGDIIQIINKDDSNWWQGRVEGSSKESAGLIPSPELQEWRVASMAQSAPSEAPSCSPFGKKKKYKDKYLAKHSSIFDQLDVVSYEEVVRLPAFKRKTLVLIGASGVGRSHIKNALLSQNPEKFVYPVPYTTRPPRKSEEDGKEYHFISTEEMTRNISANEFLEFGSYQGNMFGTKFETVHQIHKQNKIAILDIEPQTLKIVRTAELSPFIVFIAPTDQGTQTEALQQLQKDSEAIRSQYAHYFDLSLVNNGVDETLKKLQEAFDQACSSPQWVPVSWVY
Procedure: C-terminal peptides of ABCC4 containing the carboxyl-terminal 15 amino acids ([…]-COOH, ABCC4-PDZ) or carboxyl-terminal 11 amino acids lacking the PDZ-binding motif ([…]-COOH, ABCC4ΔC) conjugated to the cell penetrating peptide TAT ([…]) were chemically synthesized by the Hartwell Center for Bionformatics and Biotechnology at SJCRH. ABCC4 peptides (1–4 μM) were mixed with purified GST-ABCC4-C100 (50 nM) (Supplementary Fig. 10 ) before addition of His-S-MPP1 (3.6 nM) and allowed to mix for 2 h at 24 °C. The GST-ABCC4-C100 was immobilized on glutathione beads, and washed 3 times. Protein complexes were eluted from the beads, separated by SDS-PAGE, and immunoblotted with rabbit anti-MPP1.

MO7e cells [2] = assay: 6MP cytotoxicity in MO7e cells and CRISPR knock-outs; format: cell-based, Human
[3] = system: murine hematopoietic progenitor cells (HPC); assay: Hematopoietic progenitor cell serial replating in methylcellulose; details: HPC transduced with MPP1; cell penetrating peptide, fresh at each replating; n = 3
MO7e cells [4] = assay: Cytarabine cytotoxicity in MO7e cells; format: cell-based, Human; details: in words
Procedure: MO7e cells were seeded at 1500 cells per well of a 96-well plate. Cells were then treated with Cytarabine at increasing concentrations ranging from 0.5 to 500 μM for 4 h in serum-free media. Cells were washed three times with PBS and replaced with fresh complete media for 68 h. Cell viability analysis was determined using CellTiter Glo. Where applicable, cells were treated with 10 nM Antimycin A. IC50 values were calculated using GraphPad Prism.

[5] = system: ABCC4 plasma membrane localization in HEK293 cells expressing MPP1 and GFP-ABCC4; assay: ABCC4 plasma membrane localization (confocal microscopy); format: cell-based, Human
Procedure: Peptides containing or lacking the ABCC4-PDZ motif were fused with the cell penetrating HIV-TAT peptide. These peptides were tested for their effect on ABCC4 plasma membrane localization. HEK293 cells were transfected with MPP1 and GFP-ABCC4 and the ER protein, calreticulin. The plasma membrane was counter-stained with wheat-germ-agglutinin (WGA) labeled with Alexa647 after treatment with either ABCC4-PDZ or ABCC4ΔC peptide.
HEK293 cells were seeded on chambered coverglass slides (LAB-TEK) 48 h before transfection with plasmid DNA (250 ng) encoding pAc-GFP-ABCC4 or ABCC4ΔC and pCal plasmid encoding the ER resident protein calreticulin conjugated to RFP (Origene). Transfection was performed using Lipofectamine 2000 as per the manufacturer’s instructions. Immediately prior to visualizing cells, cells were counterstained with the plasma membrane marker wheat-germ agglutinin (WGA) conjugated to Alexa-647 (Invitrogen). All confocal microscopy images were acquired on a 3i Marianas system configured with an Yokagowa CSU-X spinning disk confocal microscope utilizing a ×63 Zeiss objective, using the 488 (GFP), 561 (RFP), and 660 (far red) laser lines.

HEK293 cells = assay: 6MP cytotoxicity / drug resistance in transfected HEK293 cells; format: cell-based, Human; details: HEK293 co-expressing ABCC4 and MPP1; cell penetrating peptide (20 μM in methods; various amounts), 96 h, in words
Procedure: HEK293 cells transfected with ABCC4 or ABCC4ΔC in the presence or absence of MPP1, MO7e, and Meg01 cells were treated with 10 concentrations of 6MP, ranging from 1 to 1000 µM, for 96 h. Cell viability analysis was determined using CellTiter Glo (Promega). Where applicable, cell penetrating peptides conjugated to the PDZ-binding motif of ABCC4 (labeled either ABCC4-PDZ or ABCC4ΔC) were added to the cells at 20 μM. Media was changed daily and new ABCC4-PDZ/ABCC4ΔC peptide and 6MP was added. IC50 values were calculated using GraphPad Prism.

[6] = system: murine hematopoietic progenitor cells (HPC)
[7] = target: T2, His-S-MPP1 fusion protein (full-length MPP1) (UniProt Q00013 1-466); assay: FRET or BRET; TR-FRET: various concentrations of B-ABCC4 with 5 nM Tb-anti-His, 50 nM AF488-streptavidin and 5 nM His-S-MPP1 in DPBS, 0.01% BSA, 1 mM DTT, 0.5% DMSO; one site total binding fit; details: both partners purified
T2 construct: MPP1 (p55), full length, expressed from the pTriX vector; the fragments of the same protein are numbered up to amino acid 466; also called purified MPP1; source: E. coli, purified (nickel column); not shown: His tag, N-terminal, kept
T2 sequence (looked up): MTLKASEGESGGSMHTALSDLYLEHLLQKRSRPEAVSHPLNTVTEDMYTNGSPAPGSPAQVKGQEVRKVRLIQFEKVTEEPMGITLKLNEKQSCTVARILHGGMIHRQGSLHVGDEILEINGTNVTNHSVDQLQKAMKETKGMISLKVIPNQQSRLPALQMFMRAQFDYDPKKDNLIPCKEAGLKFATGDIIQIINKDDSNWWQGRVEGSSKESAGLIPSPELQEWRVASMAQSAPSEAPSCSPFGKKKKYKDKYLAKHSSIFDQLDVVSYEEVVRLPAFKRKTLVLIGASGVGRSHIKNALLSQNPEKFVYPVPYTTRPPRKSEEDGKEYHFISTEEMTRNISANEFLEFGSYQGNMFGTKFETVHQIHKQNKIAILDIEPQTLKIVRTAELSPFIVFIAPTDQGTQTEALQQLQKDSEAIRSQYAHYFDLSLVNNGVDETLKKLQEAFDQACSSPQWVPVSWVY

[8] = target: T2, His-S-MPP1 fusion protein (full-length …); assay: pull-down; competition: TAT-ABCC4 peptides (1–4 μM) mixed with GST-ABCC4-C100 (50 nM) before addition of His-S-MPP1 (3.6 nM), 2 h at 24 °C; GST-ABCC4-C100 immobilized on glutathione beads, washed 3 times; immunoblot with rabbit anti-MPP1; details: both partners purified
[9] = target: T3, MPP1, endogenous in MO7e cells (human (endogenous in MO7e), UniProt Q00013 1-466); assay: cell-based or functional assay
T3 sequence (looked up): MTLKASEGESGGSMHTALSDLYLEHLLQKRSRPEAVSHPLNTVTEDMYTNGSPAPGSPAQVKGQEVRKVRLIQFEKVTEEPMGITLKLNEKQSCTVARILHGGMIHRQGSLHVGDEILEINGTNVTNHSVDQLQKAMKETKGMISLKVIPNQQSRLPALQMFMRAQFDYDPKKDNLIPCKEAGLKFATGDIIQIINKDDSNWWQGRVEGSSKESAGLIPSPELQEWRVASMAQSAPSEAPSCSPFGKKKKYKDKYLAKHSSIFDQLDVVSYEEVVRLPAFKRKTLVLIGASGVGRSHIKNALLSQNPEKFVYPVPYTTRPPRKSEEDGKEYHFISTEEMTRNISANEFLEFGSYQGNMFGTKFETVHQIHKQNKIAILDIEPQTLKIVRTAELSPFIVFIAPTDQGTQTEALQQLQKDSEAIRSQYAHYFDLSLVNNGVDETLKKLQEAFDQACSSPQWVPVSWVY

[10] = target: T2, His-S-MPP1 fusion protein (full-length …); assay: fluorescence polarisation; 100 nM FAM-ABCC4 incubated with various concentrations of full-length MPP1; estimated constant; details: both partners purified

SNGQPSTLTIFETAL-OH [ABCC4-PDZ, carboxyl-terminal 15 amino acids of ABCC4 conjugated to the cell penetrating peptide TAT]
disruption of the MPP1 and ABCC4 protein interaction ([1]; in words, in vitro competition experiment): potently disrupted complex formation
greater affinity of MPP1 for ABCC4 vs. glycophorin c ([1]; suggested by the IC50 of ~300 nM): 15 fold
effect of peptide on 6MP sensitivity (MO7e cells [2]; cell permeable peptide (10 μM), in words): sensitizes MO7e cells to 6MP
reduction of 6MP IC50 by peptide (MO7e cells [2]; cell permeable peptide (10 μM, Supplementary Fig. 5c)): 2.6 fold
effect on MPP1-driven methylcellulose replating [3]: suppressed methylcellulose replating
effect of peptide on cytarabine sensitivity (MO7e cells [4]; MO7e lacking ABCC4): no additional sensitivity to cytarabine
effect of peptide on cytarabine sensitivity (MO7e cells [4]; MO7e, cytarabine 0.5–500 μM 4 h, then 68 h): sensitized to cytarabine cytotoxicity; also recorded: specifically sensitized MO7e cells to cytarabine
effect of co-treatment on IC50 for cytarabine (MO7e cells [4]; peer review file): reduce the IC50 for cytarabine
transfected cells exhibiting loss of ABCC4 at the plasma membrane ([5]; cell penetrating peptide (TAT fused; 10 μM in Supplementary Fig. 4), n = 20 fields of view): over 90%
effect on ABCC4 plasma membrane localization ([5]; in words, confocal microscopy): reduced the ABCC4 plasma membrane localization
effect of peptide on 6MP IC50 (HEK293 cells): dose-dependently suppressed the IC50 of 6MP with the highest dose almost completely reversing the salutary effect of MPP1
toxicity to normal hematopoietic progenitors [6]: not toxic to normal

B1: Biotinylated C-terminal ABCC4 peptide (biotin-[residues removed]-COOH) (peptide)
peptide: Biotin-GHTDHMVTNTSNGQPSTLTIFETAL-OH
modifications: not fully specified; printed as biotin-GHTDHMVTNTSNGQPSTLTIFETAL-COOH
notes: ABCC4, human, C-terminal 25 amino acids with the PDZ motif ETAL; Detected through Alexa Fluor 488 streptavidin in the TR-FRET assay; also called B-ABCC4; ABCC4-PDZ peptide; source: synthetic peptide
Kd [7]: ~0.511 µM

B2: ABCC4-PDZ peptide (carboxyl-terminal 15 amino acids of ABCC4) conjugated to the cell penetrating peptide TAT (peptide)
peptide: YGRKKRRQRRRSNGQPSTLTIFETAL
notes: cell penetrating HIV-TAT peptide; ABCC4, human, carboxyl-terminal 15 amino acids with the PDZ motif ETAL, free COOH; also called cell penetrating ABCC4-PDZ peptide; source: synthetic peptide
IC50 [8]: ~0.3 µM

B3: ABCC4, endogenous in MO7e cells (natural protein, human (endogenous in MO7e), UniProt O15439 1-1325, looked up)
chain: MLPVYQEVKPNPLQDANLCSRVFFWWLNPLFKIGHKRRLEEDDMYSVLPEDRSQHLGEELQGFWDKEVLRAENDAQKPSLTRAIIKCYWKSYLVLGIFTLIEESAKVIQPIFLGKIINYFENYDPMDSVALNTAYAYATVLTFCTLILAILHHLYFYHVQCAGMRLRVAMCHMIYRKALRLSNMAMGKTTTGQIVNLLSNDVNKFDQVTVFLHFLWAGPLQAIAVTALLWMEIGISCLAGMAVLIILLPLQSCFGKLFSSLRSKTATFTDARIRTMNEVITGIRIIKMYAWEKSFSNLITNLRKKEISKILRSSCLRGMNLASFFSASKIIVFVTFTTYVLLGSVITASRVFVAVTLYGAVRLTVTLFFPSAIERVSEAIVSIRRIQTFLLLDEISQRNRQLPSDGKKMVHVQDFTAFWDKASETPTLQGLSFTVRPGELLAVVGPVGAGKSSLLSAVLGELAPSHGLVSVHGRIAYVSQQPWVFSGTLRSNILFGKKYEKERYEKVIKACALKKDLQLLEDGDLTVIGDRGTTLSGGQKARVNLARAVYQDADIYLLDDPLSAVDAEVSRHLFELCICQILHEKITILVTHQLQYLKAASQILILKDGKMVQKGTYTEFLKSGIDFGSLLKKDNEESEQPPVPGTPTLRNRTFSESSVWSQQSSRPSLKDGALESQDTENVPVTLSEENRSEGKVGFQAYKNYFRAGAHWIVFIFLILLNTAAQVAYVLQDWWLSYWANKQSMLNVTVNGGGNVTEKLDLNWYLGIYSGLTVATVLFGIARSLLVFYVLVNSSQTLHNKMFESILKAPVLFFDRNPIGRILNRFSKDIGHLDDLLPLTFLDFIQTLLQVVGVVSVAVAVIPWIAIPLVPLGIIFIFLRRYFLETSRDVKRLESTTRSPVFSHLSSSLQGLWTIRAYKAEERCQELFDAHQDLHSEAWFLFLTTSRWFAVRLDAICAMFVIIVAFGSLILAKTLDAGQVGLALSYALTLMGMFQWCVRQSAEVENMMISVERVIEYTDLEKEAPWEYQKRPPPAWPHEGVIIFDNVNFMYSPGGPLVLKHLTALIKSQEKVGIVGRTGAGKSSLISALFRLSEPEGKIWIDKILTTEIGLHDLRKKMSIIPQEPVLFTGTMRKNLDPFNEHTDEELWNALQEVQLKETIEDLPGKMDTELAESGSNFSVGQRQLVCLARAILRKNQILIIDEATANVDPRTDELIQKKIREKFAHCTVLTIAHRLNTIIDSDKIMVLDSGRLKEYDEPYVLLQNKESLFYKMVQQLGKAEAAALTETAKQVYFKRNYPHIGHTDHMVTNTSNGQPSTLTIFETAL
IC50 of 6MP in MO7e cells with the C-terminal ABCC4 peptide [9]: 2.6 fold

B4: Fluorescein-conjugated C-terminal peptide of ABCC4 (FAM-TIFETAL-COOH) (peptide)
peptide: {FAM}-TIFETAL-OH
notes: ABCC4, human, C-terminal 7 amino acids with the PDZ motif ETAL; also called FAM-ABCC4; fluorescein-labeled ABCC4-PDZ motif peptide; source: synthetic peptide
Kd [10]: ~0.6 µM
